Laboratory results from PubChem BioAssay (NCI).
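A five-concentration, 48-hour dose response in 96-well plates underlies each endpoint, interpolated linearly between surrounding concentrations. TGI: total growth inhibition.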

Columns and labels:
Assay in all cases: NCI-60 cell line screen, 48 h
HCT-116 colon = system: HCT-116 colon
MDA-N = system: MDA-N
LOX IMVI melanoma = system: LOX IMVI melanoma
NCI-H226 lung = system: NCI-H226 lung
UO-31 renal = system: UO-31 renal
SNB-19 CNS = system: SNB-19 CNS
HOP-62 NSCLC = system: HOP-62 NSCLC
HS 578T breast = system: HS 578T breast
HCT-15 colon = system: HCT-15 colon
DU-145 prostate = system: DU-145 prostate
SW-620 colon = system: SW-620 colon
HT29 colon = system: HT29 colon
OVCAR-8 ovarian = system: OVCAR-8 ovarian
RXF 393 renal = system: RXF 393 renal
CAKI-1 renal = system: CAKI-1 renal
NCI-H522 lung = system: NCI-H522 lung
M14 melanoma = system: M14 melanoma
MOLT-4 leukemia = system: MOLT-4 leukemia
NCI-H460 lung = system: NCI-H460 lung
MCF7 breast = system: MCF7 breast
NCI-H23 lung = system: NCI-H23 lung
COLO 205 colon = system: COLO 205 colon
SK-MEL-2 melanoma = system: SK-MEL-2 melanoma
CCRF-CEM leukemia = system: CCRF-CEM leukemia
A549 NSCLC = system: A549 NSCLC
K-562 leukemia = system: K-562 leukemia
786-0 renal = system: 786-0 renal
RPMI-8226 leukemia = system: RPMI-8226 leukemia
TK-10 renal = system: TK-10 renal
UACC-62 melanoma = system: UACC-62 melanoma
HCC-2998 colon = system: HCC-2998 colon
SNB-75 CNS = system: SNB-75 CNS
KM12 colon = system: KM12 colon
EKVX NSCLC = system: EKVX NSCLC
BT-549 breast = system: BT-549 breast
SK-OV-3 ovarian = system: SK-OV-3 ovarian
OVCAR-5 ovarian = system: OVCAR-5 ovarian
SF-295 CNS = system: SF-295 CNS
PC-3 prostate = system: PC-3 prostate
SF-539 CNS = system: SF-539 CNS
A498 renal = system: A498 renal
HOP-92 NSCLC = system: HOP-92 NSCLC
SK-MEL-5 melanoma = system: SK-MEL-5 melanoma
OVCAR-4 ovarian = system: OVCAR-4 ovarian
NCI/ADR-RES ovarian = system: NCI/ADR-RES ovarian
IGROV1 ovarian = system: IGROV1 ovarian
HL-60(TB) leukemia = system: HL-60(TB) leukemia
ACHN renal = system: ACHN renal
T-47D breast = system: T-47D breast
SN12C renal = system: SN12C renal
U251 CNS = system: U251 CNS
SF-268 CNS = system: SF-268 CNS
MDA-MB-231 breast = system: MDA-MB-231 breast
MDA-MB-435 = system: MDA-MB-435
UACC-257 melanoma = system: UACC-257 melanoma
SK-MEL-28 melanoma = system: SK-MEL-28 melanoma
OVCAR-3 ovarian = system: OVCAR-3 ovarian
MALME-3M melanoma = system: MALME-3M melanoma

## Cc1cc(O)c(/C=N/c2nc(-c3ccc([N+](=O)[O-])cc3)cs2)c(=O)o1
HCT-116 colon
  TGI: > 100 µM
MDA-N
  TGI: > 100 µM
LOX IMVI melanoma
  TGI: > 100 µM
NCI-H226 lung
  TGI: > 100 µM
UO-31 renal
  TGI: > 100 µM
SNB-19 CNS
  TGI: > 100 µM
HOP-62 NSCLC
  TGI: > 100 µM
HS 578T breast
  TGI: > 100 µM
HCT-15 colon
  TGI: > 100 µM
DU-145 prostate
  TGI: > 100 µM
SW-620 colon
  TGI: > 100 µM
HT29 colon
  TGI: > 100 µM
OVCAR-8 ovarian
  TGI: > 100 µM
RXF 393 renal
  TGI: > 100 µM
CAKI-1 renal
  TGI: > 100 µM
NCI-H522 lung
  TGI: > 100 µM
M14 melanoma
  TGI: > 100 µM
MOLT-4 leukemia
  TGI: > 100 µM
NCI-H460 lung
  TGI: > 100 µM
MCF7 breast
  TGI: > 100 µM
NCI-H23 lung
  TGI: > 100 µM
COLO 205 colon
  TGI: > 100 µM
SK-MEL-2 melanoma
  TGI: > 100 µM
CCRF-CEM leukemia
  TGI: > 100 µM
A549 NSCLC
  TGI: > 100 µM
K-562 leukemia
  TGI: > 100 µM
786-0 renal
  TGI: > 100 µM
RPMI-8226 leukemia
  TGI: > 100 µM
TK-10 renal
  TGI: > 100 µM
UACC-62 melanoma
  TGI: > 100 µM
HCC-2998 colon
  TGI: > 100 µM
SNB-75 CNS
  TGI: > 100 µM
KM12 colon
  TGI: > 100 µM
EKVX NSCLC
  TGI: > 100 µM
BT-549 breast
  TGI: > 100 µM
SK-OV-3 ovarian
  TGI: > 100 µM
OVCAR-5 ovarian
  TGI: > 100 µM
SF-295 CNS
  TGI: > 100 µM
PC-3 prostate
  TGI: > 100 µM
SF-539 CNS
  TGI: > 100 µM
A498 renal
  TGI: > 100 µM
HOP-92 NSCLC
  TGI: > 100 µM
SK-MEL-5 melanoma
  TGI: > 100 µM
OVCAR-4 ovarian
  TGI: > 100 µM
NCI/ADR-RES ovarian
  TGI: > 100 µM
IGROV1 ovarian
  TGI: > 100 µM
HL-60(TB) leukemia
  TGI: 75 µM
ACHN renal
  TGI: > 100 µM
T-47D breast
  TGI: > 100 µM
SN12C renal
  TGI: > 100 µM
U251 CNS
  TGI: > 100 µM
SF-268 CNS
  TGI: > 100 µM
MDA-MB-231 breast
  TGI: > 100 µM
MDA-MB-435
  TGI: > 100 µM
UACC-257 melanoma
  TGI: > 100 µM

## C#CCOC(=O)C(N)C(C)O (stereo unspecified)
HCT-116 colon
  TGI: > 100 µM
MDA-N
  TGI: > 100 µM
LOX IMVI melanoma
  TGI: > 100 µM
NCI-H226 lung
  TGI: > 100 µM
UO-31 renal
  TGI: > 100 µM
SK-MEL-28 melanoma
  TGI: > 100 µM
HOP-62 NSCLC
  TGI: > 100 µM
HS 578T breast
  TGI: > 100 µM
OVCAR-3 ovarian
  TGI: > 100 µM
DU-145 prostate
  TGI: > 100 µM
SW-620 colon
  TGI: > 100 µM
HT29 colon
  TGI: > 100 µM
OVCAR-8 ovarian
  TGI: > 100 µM
RXF 393 renal
  TGI: > 100 µM
CAKI-1 renal
  TGI: > 100 µM
NCI-H522 lung
  TGI: > 100 µM
M14 melanoma
  TGI: > 100 µM
MOLT-4 leukemia
  TGI: > 100 µM
MCF7 breast
  TGI: > 100 µM
NCI-H23 lung
  TGI: > 100 µM
MALME-3M melanoma
  TGI: > 100 µM
COLO 205 colon
  TGI: > 100 µM
SK-MEL-2 melanoma
  TGI: > 100 µM
CCRF-CEM leukemia
  TGI: > 100 µM
A549 NSCLC
  TGI: > 100 µM
K-562 leukemia
  TGI: > 100 µM
786-0 renal
  TGI: > 100 µM
RPMI-8226 leukemia
  TGI: > 100 µM
TK-10 renal
  TGI: > 100 µM
UACC-62 melanoma
  TGI: > 100 µM
SNB-75 CNS
  TGI: > 100 µM
KM12 colon
  TGI: > 100 µM
EKVX NSCLC
  TGI: > 100 µM
BT-549 breast
  TGI: > 100 µM
SK-OV-3 ovarian
  TGI: > 100 µM
OVCAR-5 ovarian
  TGI: > 100 µM
SF-295 CNS
  TGI: > 100 µM
PC-3 prostate
  TGI: > 100 µM
A498 renal
  TGI: > 100 µM
HOP-92 NSCLC
  TGI: > 100 µM
SK-MEL-5 melanoma
  TGI: > 100 µM
NCI/ADR-RES ovarian
  TGI: > 100 µM
IGROV1 ovarian
  TGI: > 100 µM
HL-60(TB) leukemia
  TGI: > 100 µM
ACHN renal
  TGI: > 100 µM
T-47D breast
  TGI: > 100 µM
SN12C renal
  TGI: > 100 µM
U251 CNS
  TGI: > 100 µM
SF-268 CNS
  TGI: > 100 µM
MDA-MB-231 breast
  TGI: > 100 µM
MDA-MB-435
  TGI: > 100 µM
UACC-257 melanoma
  TGI: > 100 µM

## CCOP(=O)(/C=C/n1ccc(N)nc1=O)OCC
HCT-116 colon
  TGI: > 100 µM
MDA-N
  TGI: > 100 µM
LOX IMVI melanoma
  TGI: > 100 µM
NCI-H226 lung
  TGI: > 100 µM
SK-MEL-28 melanoma
  TGI: > 100 µM
SNB-19 CNS
  TGI: > 100 µM
HOP-62 NSCLC
  TGI: > 100 µM
HS 578T breast
  TGI: > 100 µM
HCT-15 colon
  TGI: > 100 µM
OVCAR-3 ovarian
  TGI: > 100 µM
DU-145 prostate
  TGI: > 100 µM
SW-620 colon
  TGI: > 100 µM
HT29 colon
  TGI: > 100 µM
OVCAR-8 ovarian
  TGI: > 100 µM
RXF 393 renal
  TGI: > 100 µM
CAKI-1 renal
  TGI: > 100 µM
NCI-H522 lung
  TGI: > 100 µM
M14 melanoma
  TGI: > 100 µM
MOLT-4 leukemia
  TGI: > 100 µM
NCI-H460 lung
  TGI: > 100 µM
MCF7 breast
  TGI: > 100 µM
NCI-H23 lung
  TGI: > 100 µM
COLO 205 colon
  TGI: > 100 µM
SK-MEL-2 melanoma
  TGI: > 100 µM
CCRF-CEM leukemia
  TGI: > 100 µM
A549 NSCLC
  TGI: > 100 µM
K-562 leukemia
  TGI: > 100 µM
786-0 renal
  TGI: > 100 µM
RPMI-8226 leukemia
  TGI: > 100 µM
TK-10 renal
  TGI: > 100 µM
UACC-62 melanoma
  TGI: > 100 µM
SNB-75 CNS
  TGI: > 100 µM
KM12 colon
  TGI: > 100 µM
EKVX NSCLC
  TGI: > 100 µM
BT-549 breast
  TGI: > 100 µM
SK-OV-3 ovarian
  TGI: > 100 µM
OVCAR-5 ovarian
  TGI: > 100 µM
SF-295 CNS
  TGI: > 100 µM
PC-3 prostate
  TGI: > 100 µM
SF-539 CNS
  TGI: > 100 µM
A498 renal
  TGI: > 100 µM
SK-MEL-5 melanoma
  TGI: > 100 µM
OVCAR-4 ovarian
  TGI: > 100 µM
NCI/ADR-RES ovarian
  TGI: > 100 µM
IGROV1 ovarian
  TGI: > 100 µM
HL-60(TB) leukemia
  TGI: > 100 µM
ACHN renal
  TGI: > 100 µM
T-47D breast
  TGI: > 100 µM
SN12C renal
  TGI: > 100 µM
U251 CNS
  TGI: > 100 µM
SF-268 CNS
  TGI: > 100 µM
MDA-MB-231 breast
  TGI: > 100 µM
MDA-MB-435
  TGI: > 100 µM
UACC-257 melanoma
  TGI: > 100 µM
